“Also recorded” adds a separate entry of the source.
Legend:
PKBdelta PH = molecular target: T1, PKBdelta PH (Homo sapiens, UniProt P31749, S473D); assay: Protein kinase panel selectivity screen, PKBdelta PH; type: biochemical; conditions: 1 μM compound; [ATP] 5 μM
T1 construct: Dundee University (panel)
Method: (§1) The names of the 29 kinases comprising the selectivity screen, as well as the ATP concentrations used in each kinase case, are given in Table 5. The kinase assays were carried out as described previously.
(§2) Compound XIV at a concentration of 1 μM was screened in the 29-kinase panel (Dundee University) and the results are shown bellow in Table 6.

JNK/SAPK1c = molecular target: T2, JNK/SAPK1c (Homo sapiens, UniProt P45983); assay: Protein kinase panel selectivity screen, JNK/SAPK1c; type: biochemical; conditions: 1 μM compound
T2 construct: Dundee University (panel)
T2 sequence (P45983 whole entry): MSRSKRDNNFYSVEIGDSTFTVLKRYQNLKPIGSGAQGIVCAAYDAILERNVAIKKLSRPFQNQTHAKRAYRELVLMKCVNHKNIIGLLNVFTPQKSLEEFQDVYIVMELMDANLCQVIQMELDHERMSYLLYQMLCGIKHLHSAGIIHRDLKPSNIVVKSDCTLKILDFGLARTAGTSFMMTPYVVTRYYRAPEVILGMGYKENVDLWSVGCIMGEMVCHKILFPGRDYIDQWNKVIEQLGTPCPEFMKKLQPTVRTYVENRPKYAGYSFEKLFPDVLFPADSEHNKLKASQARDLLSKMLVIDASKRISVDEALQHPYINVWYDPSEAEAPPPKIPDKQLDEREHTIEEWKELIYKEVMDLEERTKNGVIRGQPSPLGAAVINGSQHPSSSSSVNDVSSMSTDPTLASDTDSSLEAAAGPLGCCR
Method: as §1, §2

ROCK-II = assay: Protein kinase panel selectivity screen, ROCK-II; type: biochemical; conditions: 1 μM compound; [ATP] 20 μM
Method: as §1, §2

CDK9/cyclin T1 = molecular target: T3, CDK9/cyclin T1 (Homo sapiens, UniProt P50750); assay: CDK9/cyclin T1 inhibition constant; type: biochemical
T3 construct: His6 (N); made in house; host or cells: Sf9 insect cells (baculovirus)
T3 sequence (P50750 whole entry, species assumed): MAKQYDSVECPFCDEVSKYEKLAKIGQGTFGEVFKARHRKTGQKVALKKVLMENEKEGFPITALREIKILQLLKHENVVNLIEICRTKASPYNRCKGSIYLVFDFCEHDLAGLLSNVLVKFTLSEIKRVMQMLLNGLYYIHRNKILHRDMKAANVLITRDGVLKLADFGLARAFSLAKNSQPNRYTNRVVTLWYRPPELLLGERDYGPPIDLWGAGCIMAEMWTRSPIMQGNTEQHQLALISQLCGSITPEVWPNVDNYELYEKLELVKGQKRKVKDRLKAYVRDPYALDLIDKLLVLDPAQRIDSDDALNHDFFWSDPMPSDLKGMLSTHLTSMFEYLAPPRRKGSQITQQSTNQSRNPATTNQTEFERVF
T3 sequence (O60563 whole entry partner, species assumed): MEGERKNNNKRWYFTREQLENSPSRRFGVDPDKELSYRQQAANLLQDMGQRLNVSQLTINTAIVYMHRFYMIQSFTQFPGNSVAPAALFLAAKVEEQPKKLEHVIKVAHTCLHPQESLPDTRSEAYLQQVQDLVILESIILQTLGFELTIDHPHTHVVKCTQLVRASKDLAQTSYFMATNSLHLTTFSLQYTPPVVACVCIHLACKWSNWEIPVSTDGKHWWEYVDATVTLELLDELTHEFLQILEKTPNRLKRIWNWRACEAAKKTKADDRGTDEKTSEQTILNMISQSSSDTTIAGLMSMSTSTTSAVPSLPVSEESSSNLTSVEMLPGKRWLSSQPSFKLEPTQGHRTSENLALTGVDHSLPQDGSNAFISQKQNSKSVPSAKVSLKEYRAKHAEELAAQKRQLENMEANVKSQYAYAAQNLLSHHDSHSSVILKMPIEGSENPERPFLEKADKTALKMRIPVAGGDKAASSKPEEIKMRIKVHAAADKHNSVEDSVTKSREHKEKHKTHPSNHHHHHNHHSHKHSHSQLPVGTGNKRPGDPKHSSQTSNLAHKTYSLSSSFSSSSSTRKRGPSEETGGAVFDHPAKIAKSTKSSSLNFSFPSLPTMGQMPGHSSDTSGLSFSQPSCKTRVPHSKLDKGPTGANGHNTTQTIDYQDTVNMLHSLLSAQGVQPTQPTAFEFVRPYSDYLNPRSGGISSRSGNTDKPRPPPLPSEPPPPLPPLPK
Method: CDK4/cyclin D1, CDK1/cyclin B, CDK2/cyclin E, CDK2/cyclin A, CDK9/cyclin T1 and CDK7/cyclin H, all with a His6 tag on the N-terminus, were expressed in Sf9 insect cells using an appropriate baculovirus construct. Sf9 culture (1.6×10^6 cells/mL) was infected (MOI of 3) for two days. The cells were harvested by low speed centrifugation and the protein was purified from the insect cell pellet by metal affinity chromatography. In short: the insect cell pellet was lysed in Buffer A (10 mM Tris-HCl pH 8.0, 150 mM NaCl, 0.02% NP-40, 5 mM β-mercaptoethanol, 20 mM NaF, 1 mM Na3VO4, and Sigma Protease Inhibitor Cocktail) by sonication. The soluble fraction was cleared by centrifugation and loaded onto Ni-NTA-Agarose (Qiagen). Non-bound protein was washed off with 300 mM NaCl, 5-15 mM imidazole in buffer A and the bound protein was eluted with buffer A supplemented with 250 mM imidazole. The purified proteins were extensively dialyzed against storage buffer (20 mM HEPES pH 7.4, 50 mM NaCl, 2 mM DTT, 1 mM EDTA, 1 mM EGTA, 0.02% NP-40, 10% v/v glycerol) and stored at −70° C.
Intrinsic inhibition constants (Ki) for example compound XIV against a number of Ser/Thr kinases were determined and are summarized in Table 3.

PHK = molecular target: T4, PHK (Oryctolagus cuniculus, UniProt P00518); assay: Protein kinase panel selectivity screen, PHK; type: biochemical; conditions: 1 μM compound; [ATP] 20 μM
T4 construct: Dundee University (screening panel)
Method: as §1, §2

[1] = tested on: glycogen synthase activity in L6 rat myocytes; assay: Glycogen synthase (GS) assay in L6 rat myocytes; type: cell-based
Method: Rat skeletal muscle myoblasts L6/G8.C5 were seeded at 2.4×10^5 cells per 10 cm dish in DMEM 10% foetal calf serum (FCS), containing penicillin/streptomycin. When 90% confluence was reached the medium was exchanged with α MEM, supplemented with 2%
FCS and penicillin/streptomycin. Medium was refreshed every 48 hours and 4-7 days later the myocytes were formed.
Cells on 10 cm dishes (Human Embryonic Kidney (HEK) 293 cells, L6 rat myocytes, or 3T3 mouse adipocytes) were treated with different concentrations of GSK3-inhibitors or DMSO vehicle for 90 min. […] Lysates were assayed for glycogen synthase activity in buffer (50 mM Tris-HCl, pH 7.8, 20 mM EDTA, 25 mM NaF, 5 mM DTT, 1% glycogen, 0.3 mM UDP-glucose and 0.06 μCi of [^14C]-UDP-glucose in the presence of 0.1 or 10 mM glucose-6-phosphate. The reaction was carried out for 30 min at 30° C. 70 μL of the reaction mixture (total volume 90 μL) were transferred to a GFC 96-well filter plate (bottom sealed with foil), containing 140 μL 96% ethanol. The GFC plate was incubated for 1 h on ice and than washed with 66% ethanol. To each well 100 μL scintillant liquid was added and the radioactivity of the samples was measured using a scintillation counter (Topcount, HP). Data are expressed as -fold increase in glycogen synthase activity ratios over those of control samples.

[2] = tested on: β-catenin in HEK293 cells; assay: β-catenin accumulation and phosphorylation in HEK293 cells; type: cell-based, human; conditions: up to 5 μM
From the text: One of the possible toxicities related to GSK3 inhibition is the accumulation of β-catenin, which has been implicated in the development of colon cancer and melanoma. The effect of example compound XIV on the endogenous levels of β-catenin in HEK293 cells was studied at concentrations that are effective in activation of cellular glycogen synthase.

GSK3b = molecular target: T5, GSK3b (Homo sapiens, UniProt P49841); assay: Protein kinase panel selectivity screen, GSK3b; type: biochemical; conditions: 1 μM compound
T5 construct: Dundee University (panel)
T5 sequence (P49841 whole entry, species assumed): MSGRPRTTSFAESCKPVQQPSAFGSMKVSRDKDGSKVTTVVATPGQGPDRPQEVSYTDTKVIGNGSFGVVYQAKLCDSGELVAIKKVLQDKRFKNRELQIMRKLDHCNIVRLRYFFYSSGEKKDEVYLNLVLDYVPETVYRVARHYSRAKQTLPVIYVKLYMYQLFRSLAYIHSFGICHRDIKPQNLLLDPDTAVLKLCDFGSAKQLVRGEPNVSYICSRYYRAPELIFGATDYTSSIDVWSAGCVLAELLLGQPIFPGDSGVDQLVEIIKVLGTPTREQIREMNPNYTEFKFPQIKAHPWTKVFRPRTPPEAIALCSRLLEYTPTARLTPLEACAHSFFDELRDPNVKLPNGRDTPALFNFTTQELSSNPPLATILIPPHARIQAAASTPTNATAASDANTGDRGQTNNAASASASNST
Method: as §1, §2

MKK1 = molecular target: T6, MKK1 (Homo sapiens, UniProt Q02750); assay: Protein kinase panel selectivity screen, MKK1; type: biochemical; conditions: 1 μM compound; [ATP] 5 μM
T6 construct: Dundee University (panel)
T6 sequence (Q02750 whole entry, species assumed): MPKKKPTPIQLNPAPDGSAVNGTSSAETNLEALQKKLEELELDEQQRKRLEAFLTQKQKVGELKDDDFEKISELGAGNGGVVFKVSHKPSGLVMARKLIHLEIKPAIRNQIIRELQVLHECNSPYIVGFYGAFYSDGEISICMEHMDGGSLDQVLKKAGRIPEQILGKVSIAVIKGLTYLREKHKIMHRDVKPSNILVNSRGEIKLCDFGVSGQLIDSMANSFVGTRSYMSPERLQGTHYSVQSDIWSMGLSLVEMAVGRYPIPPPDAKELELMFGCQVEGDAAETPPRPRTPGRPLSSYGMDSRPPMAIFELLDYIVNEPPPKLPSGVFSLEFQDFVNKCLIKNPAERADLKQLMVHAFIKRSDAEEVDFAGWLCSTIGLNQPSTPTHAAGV
Method: as §1, §2

GSK-3β = molecular target: T7, GSK-3β (Oryctolagus cuniculus, UniProt G1T8E2); assay: GSK-3β kinase assay; type: biochemical, rabbit
T7 construct: isolated from a strain of E. coli that carries a clone expressing GSK-3β derived from a rabbit skeletal muscle cDNA library [34]
T7 sequence (G1T8E2 1-432): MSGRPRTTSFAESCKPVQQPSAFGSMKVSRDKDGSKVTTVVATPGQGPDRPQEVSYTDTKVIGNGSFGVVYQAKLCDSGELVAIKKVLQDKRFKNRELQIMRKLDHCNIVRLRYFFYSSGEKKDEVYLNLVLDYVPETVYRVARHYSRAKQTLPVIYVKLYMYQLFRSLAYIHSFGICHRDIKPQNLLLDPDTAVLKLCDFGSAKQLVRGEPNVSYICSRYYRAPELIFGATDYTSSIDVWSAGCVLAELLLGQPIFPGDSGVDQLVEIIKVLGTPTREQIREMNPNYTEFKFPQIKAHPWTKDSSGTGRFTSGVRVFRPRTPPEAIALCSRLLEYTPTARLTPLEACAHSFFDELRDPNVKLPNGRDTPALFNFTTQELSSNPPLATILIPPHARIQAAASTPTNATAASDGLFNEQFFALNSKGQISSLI
Method: GSK-3 was obtained from New England Biolabs (UK) Ltd., Hitchin, Herts. The recombinant enzyme was isolated from a strain of E. coli that carries a clone expressing GSK-3β derived from a rabbit skeletal muscle cDNA library. Inhibition of GSK-3 function was assessed by measurement of phosphorylation of CREB phosphopeptide KRREILSRRPpSYR in the presence of test compounds. Using a 96-well assay format, GSK3 (7.5 U) was incubated for 30 min at 30° C. in a total volume of 25 μL in 20 mM MOPS pH 7.2, 25 mM β-glycerophosphate, 5 mM EGTA, 1 mM DTT, 1 mM […], 40 μM CREB peptide, 15 mM MgCl2 and 100 μM ATP (containing 0.25 μCi [γ-^32P]-ATP) in the presence of varying concentrations of test compound. The samples were transferred to 96-well p81 filter plates (Whatman Polyfiltronics, Kent, UK), and the plates were washed 4 times with 200 μL/well of 75 mM aq orthophosphoric acid. Scintillation liquid (50 μL) was added to each well, and incorporated radioactivity for each sample was determined using a scintillation counter (TopCount, Packard Instruments, Pangbourne, Berks, UK).

T1 sequence (P31749 118-480 S473D limits assumed): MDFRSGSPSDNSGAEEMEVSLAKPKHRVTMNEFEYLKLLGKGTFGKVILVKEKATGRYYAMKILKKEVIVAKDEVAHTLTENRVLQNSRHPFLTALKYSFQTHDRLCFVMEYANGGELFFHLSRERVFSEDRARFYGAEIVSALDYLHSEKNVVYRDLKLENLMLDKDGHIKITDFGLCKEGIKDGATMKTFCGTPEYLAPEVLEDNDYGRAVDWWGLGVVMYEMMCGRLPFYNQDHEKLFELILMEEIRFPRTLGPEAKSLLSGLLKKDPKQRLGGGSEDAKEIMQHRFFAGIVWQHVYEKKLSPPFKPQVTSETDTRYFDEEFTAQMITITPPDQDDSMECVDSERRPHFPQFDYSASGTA

SMILES: Clc1ccc(Nc2nccc(-c3nccs3)n2)cn1 [Compound XIV, (6-Chloro-pyridin-3-yl)-(4-thiazol-2-yl-pyrimidin-2-yl)-amine]
- activity at 1 µM (PKBdelta PH): 98 ± 1%
- inhibition at 1 µM (JNK/SAPK1c): ~40%
- activity at 1 µM (JNK/SAPK1c; [ATP] 20 μM): 56 ± 4%
- % Activity ROCK-II (ROCK-II): 87 ± 6%
- Ki (CDK9/cyclin T1): 500 nM
- Fold selectivity for GSK3 over CDK9/cyclin T1 (CDK9/cyclin T1; from Ki): 31 fold
- activity at 1 µM (PHK): 120 ± 7%
- EC50 ([1]; Rattus norvegicus, L6 myocytes, from dose-response curves, read-out: EC50 activation of glycogen synthase): 4000 ± 1500 nM
- Activity of glycogen synthase (fractional velocity) ([1]; rat myocyte cells, ratio of activity at 0.1 and 10 mM glucose-6-phosphate): increased the activity of glycogen synthase
- Levels of cellular β-catenin [2]: lack of β-catenin accumulation; also recorded: did not change significantly
- Phosphorylation of β-catenin at the GSK3-specific sites S33,37/T41 [2]: did not inhibit the phosphorylation
- Selectivity in the 29-kinase panel (GSK3b): highly selective for GSK3
- activity at 1 µM (GSK3b; [ATP] 5 μM): 13 ± 5%
- activity at 1 µM (MKK1): 83 ± 4%
- Ki (GSK-3β; read-out: Ki GSK3): 16 nM
- IC50 (GSK-3β; read-out: Kinase inhibition IC50 GSK3β): 176 nM
